Reference: patent US11779597B2, “Method of treating Parkinson's and other neurodegenerative diseases” (Vector Vitale IP LLC, priority 2019, dated 2023)

How the values were obtained:
[1] = tested on: rat peripheral blood neutrophils; experiment: Metabolic profile of nonsensitized rat peripheral blood neutrophils in vitro; assay type: cell-based
Description: Materials and methods: Rat microglial cells were isolated by mechanical (cell sieves) disintegration of the brain tissue (FIG. 30A, FIG. 30B and FIG. 30C) followed by fractionation of the tissue homogenate in Percoll density gradient (Microglia: Methods and Protocols, Edited by Bertrand Josef and Jose Luis Venero, Springer protocol. Humana Press, 2013, 350 p.) (FIG. 31). Before the collection of the brain tissue, decapitation was performed to avoid hemorrhage to the brain during sampling (FIG. 32). Decapitation was performed immediately after anesthesia to minimize the death of brain tissue, including microglial cells. All manipulations for the isolation of microglial cells were carried out using coolants. Circulating neutrophils were isolated from venous blood taken into a tube containing EDTA in a two-step Percoll gradient (Alsharif K F et al. Vascul Pharmacol. 2015 August; 71:201-7. doi: 10.1016/j.vph.2015.02.006)(FIG. 33A and FIG. 33B). Circulating monocytes were isolated from venous blood collected into a tube containing heparin in a two-step Hypaque gradient (Macrophages and dendritic cells: Methods and Protocols, Edited by Neil E. Reiner, NY, Humana Press, 2009: 368 P). The metabolic profile of phagocytes was characterized based on the pathway of arginine metabolism (levels of arginase activity and NO synthesis measured using photocolorimetric methods), the level of formation of intracellular reactive oxygen species (ROS) by esterases and the indices of phagocytic activity determined by flow cytofluorimetry, as well as according to the activation levels of NADH and NADPH oxidases determined in NBT test. Duration of treatment of phagocytes of all the above mentioned populations varied depending on the methodological characteristics of metabolic response. A 90 minute exposure to the drugs according to Kim et al., 1977 (cited above) was used to analyze their effects on oxidative metabolism and phagocytic activity. An 18 hour exposure according to Lastra et al., 2001 (cited above) was used to analyze the drug effects on arginine metabolic pathway. To analyze the effects of the drugs under study on the induced (stimulated) metabolic activity of phagocytes, the cells were treated with lipopolysaccharide (LPS) from E. coli (Sigma, USA) according to Haddad et al., 2009 (cited above).

[2] = tested on: LPS rat models of Parkinson's disease; experiment: Open field test; assay type: in vivo
Text: Method. The open field test is a technique commonly used to measure locomotor activity of rodents and their level of exploratory activity in an unfamiliar environment, as well as assess the levels of fear of novelty, anxiety or an increase in orientation response in rodents (Denenberg V H, et al., Physiology and Behavior, 1969; 4:403-406; Pellow S et al., J Neurosci Methods. 1985; 14(3):149-67). Behavioral patterns measured in the open field test include: distance travelled in the outer and inner perimeter, duration of time spent in the outer and inner perimeter, the total distance travelled and a percentage of the number of internal squares crossed compared to the total number of squares.
The open field was a square chamber 100×100 cm in size and with walls 60 cm high. The chamber was illuminated by two LED bulbs, 60 watts each, hanging at a height of 2 m. An IP camera was used to record the rodent movement. The MATLAB-based software was used to analyze the parameters. The statistical analysis was performed using GraphPad Prism. Significance was set at <0.005. The data collected from the open field were analyzed using One-way ANOVA (Tukey test or Dunnett test) and Unpaired t-test or Mann-Whitney.
Data analysis and interpretation. A novel environment in which an animal finds itself evokes conflict between fear and a desire to explore this environment. These two behavioral tendencies are characterized by different temporal variations and different spatial advantages. In the analysis, an arena is divided into two zones: inner and outer. The total locomotor activity and time spent in the inner and outer zones are the most significant parameters for assessing the levels of anxiety in rats. […] An increase in attendance of the inner zone is interpreted as a decreased anxiety in the animal. The emotional and exploratory behavior of an animal can be affected by various disorders in such brain regions as the hippocampus and the amygdala. In addition, various substances that have anxiolytic, stimulating and muscle relaxant effects can influence the results of the experiment. FIG. 50A and FIG. 50B show an example of analysis of a rat trajectory in the experimental arena.
On the 1st day of the experiment, rats were either operated to model hemi-parkinsonism or sham operated. From the 9th to the 18th day of the experiment, the animals were injected either deuterium-depleted water or the test substance, according to their allocation into groups, for 10 days. On the 8th day of the experiment (before initiation of treatment—apomorphine test I) and on the 21st day of the experiment (after the end of administering the test substance —apomorphine test II) the animals underwent an apomorphine test to analyze the development of hemi-parkinsonism which correlates with the number of destroyed dopaminergic neurons. In addition, a follow-up analysis of fecal water content was carried out, i.e., before the start of treatment on the 8th day after the operation, as well as on the 21st (after the end of treatment) and the 28th day (before autopsy). On the 24th day of the experiment, behavioral tests were carried out in all groups. All animals were weighed before autopsy. During autopsy, ⅔ of animals from each group were sacrificed by cervical dislocation and brain and blood samples were collected for further biochemical and immunological tests. ⅓ of the animals were used for further immunohistochemical studies of the brain; for this purpose, under anesthesia, a procedure of fast, controlled and uniform fixation of the whole body of the animal was performed using 4% paraformaldehyde perfused through the heart of the rat to obtain the best preservation of the brain architecture for immunohistochemistry. Gage G J, et al., J Vis Exp. 2012 Jul. 30; (65).

circulating leukocytes = experiment: Blood count values in LPS rat models; assay type: in vivo; conditions: day 28
Description: (§1) On the 1st day of the experiment, rats were either operated to model hemi-parkinsonism or sham operated. From the 9th to the 18th day of the experiment, the animals were injected either deuterium-depleted water or the test substance, according to their allocation into groups, for 10 days. On the 8th day of the experiment (before initiation of treatment—apomorphine test I) and on the 21st day of the experiment (after the end of administering the test substance —apomorphine test II) the animals underwent an apomorphine test to analyze the development of hemi-parkinsonism which correlates with the number of destroyed dopaminergic neurons. In addition, a follow-up analysis of fecal water content was carried out, i.e., before the start of treatment on the 8th day after the operation, as well as on the 21st (after the end of treatment) and the 28th day (before autopsy). On the 24th day of the experiment, behavioral tests were carried out in all groups. All animals were weighed before autopsy. […]
The blood count values were analyzed at the completion of the experiment (day 28). The absolute number of leukocytes, as well as the absolute and relative numbers of lymphocytes, monocytes and neutrophilic granulocytes were calculated.

[3] = tested on: neuronal nitric oxide synthase; experiment: Neuronal nitric oxide synthase expression in astrocytes in LPS rat models; assay type: in vivo; conditions: sham operation and LPS-induced PD; 1.5 mg/kg
Description: as §1

Question: How did the “arginase activity of resting and bacterial LPS-treated neutrophils” value [1] turn out when “^64Zn-enriched zinc aspartate [^64Zne-asp]” was run?
Answer: The value was “remained practically unchanged”.

Question: And the “esterase-dependent oxidative metabolism in neutrophils treated with bacterial LPS” value [1]?
Answer: The value was “sharp decrease”.

Question: And the “intracellular ROS production by nonsensitized neutrophils” value [1]?
Answer: Its value is “sharp decrease”.

Question: What about the “phagocytic activity of neutrophils” value [1] of the same substance?
Answer: Its value is “No statistically significant effect”.

Question: And the “synthesis of reactive nitrogen species by neutrophils after treatment with LPS” value [1]?
Answer: Its value is “moderately negative effect”.

Question: And the “synthesis of reactive nitrogen species by resting neutrophils” value [1]?
Answer: The value was “no significant effect”.

Question: What about the “ROS production dependent on NADH and NADPH oxidases (NBT test) in neutrophils” value ([1]; irrespective of treatment with bacterial LPS) of the same substance?
Answer: Its value is “strong negative effect”.

Question: And the “frequency of defecations (in words)” value ([2]; LPS + ^64Zn-asp versus LPS + deuterium-depleted water)?
Answer: The value was “increased”.

Question: What about the Number of defecations ([2]; LPS + ^64Zn-asp, Gr. V) of the same substance?
Answer: Its Number of defecations is 7 ± 2.582.

Question: What about the Number of groomings ([2]; LPS + ^64Zn-asp, Gr. V) of the same substance?
Answer: Its Number of groomings is 3.5 ± 1.354.

Question: And the Number of rearings ([2]; LPS + ^64Zn-asp, Gr. V)?
Answer: The Number of rearings was 14.4 ± 6.687.

Question: What about the “Time spent in the inner perimeter” value ([2]; LPS + ^64Zn-asp, Gr. V) of the same substance?
Answer: The value was 9.235 ± 9.344 s.

Question: And the “Time spent in the outer perimeter” value ([2]; LPS + ^64Zn-asp, Gr. V)?
Answer: Its value is 290.8 ± 9.333 s.

Question: And the “Total distance travelled, cm” value ([2]; LPS + ^64Zn-asp, Gr. V)?
Answer: Its value is 1056 ± 423 cm.

Question: What about the “levels of locomotor activity, anxiety or irritability (summary of behavioral tests)” value ([2]; findings of Example 7) of the same substance?
Answer: Its value is “no significant effects”.

Question: And the “total distance travelled, time in outer and inner perimeter, number of rearings and groomings (in words)” value ([2]; group V (LPS+^64Zn-asp) versus group IV (LPS))?
Answer: Its value is “did not have any effect”.

Question: And the “absolute number of circulating leukocytes” value (circulating leukocytes)?
Answer: The value was “did not influence”.

Question: And the “expression of nitric oxide synthase enzyme in astrocytes” value [3]?
Answer: The value was “increase”.
